Test results reported in patent US11045561B2, “Rotaxane-type probe for molecular imaging” (Rhode Island Council on Postsecondary Education, priority 2017, dated 2021).

Tests used:
[1] = HyperCEST detection by hyperpolarized 129Xe NMR (fritted phantom, 3T clinical scanner); settings: 10 mM in water; saturation pulse at about +128 ppm; 3T scanner
Description: FIGS. 7A and 7B show HyperCEST data for rotaxane-type biosensors: (FIG. 7A) cucurbiturils and pillararene-based; (FIG. 7B) cycodextrin-based. [Note: ^a Samples were dissolved in water (2 mL, 10 mM), and 1D ^129Xe spectrum were initially recorded and then a series of HyperCEST spectra were sequentially recorded using a series of off resonance pulses varying by 5 ppm. ^b Performed in H2O/DMSO. ^c Performed in CHCl3.]
For the HP-Xe studies, we used a custom-built fritted phantom inside of a custom dual tuned ^1H/^129Xe radiofrequency (RF) coil to acquire all free induction decay (FID) spectra (FIG. 6). Rotaxane-type biosensor molecules, dissolved in water and/or DMSO, were placed inside the fritted phantom, and HP ^129Xe was introduced below the fritted phantom that created microbubbles that rose vertically through the sample. A series of saturation pre-pulses at a variety of chemical shift offsets were loaded into the user interface software of the […] Achieva 3T MR scanner. Spectra with different saturation pre-pulses were acquired approximately every six seconds. […]
Nuclear Magnetic Resonance (NMR) HyperCEST Detection. […] The RF pulse length was determined with the use of the Ref B1, a parameter of Philips MR scanners. […] In this study, the B1 field strength was determined by the scanner to be 15.9 μT. […]

[2] = cited from earlier work; for affinity for xenon as observed by 129Xe NMR: aqueous media, room temperature for cyclodextrins

Question: For `O=C1N2CN3C(=O)N4CN5C(=O)N6CN7C(=O)N8CN9C(=O)N%10CN%11C(=O)N%12CN1C1C2N2CN%13C(=O)N(CN%14C(=O)N(CN%15C(=O)N(CN%16C(=O)N(CN%17C(=O)N(CN1C2=O)C%12C%11%17)C%10C9%16)C8C7%15)C6C5%14)C4C3%13` (stereo not shown) [CB6, cucurbit[6]uril], which “HyperCEST depletion (maximum)” value [1] is on record?
Answer: The value was 67%.

Question: Which “affinity for xenon as observed by 129Xe NMR” value (shortened to “affinity for xenon as observed”) [2] does the source give for `O=C1N2CN3C(=O)N4CN5C(=O)N6CN7C(=O)N8CN9C(=O)N%10CN%11C(=O)N%12CN%13C(=O)N%14CN%15C(=O)N%16CN1C1C2N2CN%17C(=O)N(CN%18C(=O)N(CN%19C(=O)N(CN%20C(=O)N(CN%21C(=O)N(CN%22C(=O)N(CN%23C(=O)N(CN1C2=O)C%16C%15%23)C%14C%13%22)C%12C%11%21)C%10C9%20)C8C7%19)C6C5%18)C4C3%17` (stereo not shown) [CB[8], cucurbit[8]uril] here?
Answer: Its value is “do not show any affinity for xenon”.

Question: With `COc1cc2c3cc1OCCOc1cc4c(cc1OC)Cc1cc5c(OC)cc1Cc1cc(c(OC)cc1C4)OCCOc1cc(c(cc1OC)C3)Cc1cc(OC)c(cc1C2)OCCO5` [Cryptophane-A] as the compound, how does the xenon residence time ([2]; room temperature) read?
Answer: Its xenon residence time is 0.5 to 8 ms.

Question: Which “affinity for xenon as observed” value [2] does the source give for `OC[C@H]1O[C@@H]2O[C@H]3[C@H](O)[C@@H](O)[C@@H](O[C@H]4[C@H](O)[C@@H](O)[C@@H](O[C@H]5[C@H](O)[C@@H](O)[C@@H](O[C@H]6[C@H](O)[C@@H](O)[C@@H](O[C@H]7[C@H](O)[C@@H](O)[C@@H](O[C@H]1[C@H](O)[C@H]2O)O[C@@H]7CO)O[C@@H]6CO)O[C@@H]5CO)O[C@@H]4CO)O[C@@H]3CO` [α-CD, α-cyclodextrin] here?
Answer: Its value is “either fail to bind xenon in aqueous media, or the reversible binding has too fast of an exchange rate to be detectable”.

Question: With `OC[C@H]1O[C@@H]2O[C@H]3[C@H](O)[C@@H](O)[C@@H](O[C@H]4[C@H](O)[C@@H](O)[C@@H](O[C@H]5[C@H](O)[C@@H](O)[C@@H](O[C@H]6[C@H](O)[C@@H](O)[C@@H](O[C@H]7[C@H](O)[C@@H](O)[C@@H](O[C@H]8[C@H](O)[C@@H](O)[C@@H](O[C@H]1[C@H](O)[C@H]2O)O[C@@H]8CO)O[C@@H]7CO)O[C@@H]6CO)O[C@@H]5CO)O[C@@H]4CO)O[C@@H]3CO` [β-CD, β-cyclodextrin] as the compound, how does the “affinity for xenon as observed” value [2] read?
Answer: Its value is “either fail to bind xenon in aqueous media, or the reversible binding has too fast of an exchange rate to be detectable”.

Question: For `OC[C@H]1O[C@@H]2O[C@H]3[C@H](O)[C@@H](O)[C@@H](O[C@H]4[C@H](O)[C@@H](O)[C@@H](O[C@H]5[C@H](O)[C@@H](O)[C@@H](O[C@H]6[C@H](O)[C@@H](O)[C@@H](O[C@H]7[C@H](O)[C@@H](O)[C@@H](O[C@H]8[C@H](O)[C@@H](O)[C@@H](O[C@H]9[C@H](O)[C@@H](O)[C@@H](O[C@H]1[C@H](O)[C@H]2O)O[C@@H]9CO)O[C@@H]8CO)O[C@@H]7CO)O[C@@H]6CO)O[C@@H]5CO)O[C@@H]4CO)O[C@@H]3CO` [γ-CD, γ-cyclodextrin], which “affinity for xenon as observed” value [2] is on record?
Answer: The value was “either fail to bind xenon in aqueous media, or the reversible binding has too fast of an exchange rate to be detectable”.

Question: With cucurbit[7]uril [CB[7]] as the compound, how does the “affinity for xenon as observed” value [2] read?
Answer: Its value is “do not show any affinity for xenon”.
